We go through 22 compounds from US10533010B2, “Substituted indole Mcl-1 inhibitors” (Vanderbilt University, priority 2014, dated 2020).

Where two headings read alike, the source gives them in different places. Some results are limits rather than exact numbers.

As a reminder, the Ki is a dissociation constant, usually derived from enzyme kinetics or from competition with a known ligand.

For this assay, the target named is recombinant Mcl-1 (residues 172-327) (Homo sapiens (Human), UniProt Q07820). Kind of assay: Fluorescence polarization anisotropy competition assay (FITC-Bak or FITC-Bim BH3 peptide) with Mcl-1. The class given is binding.
recombinant Mcl-1 (residues 172-327), sequence (Q07820 172-327): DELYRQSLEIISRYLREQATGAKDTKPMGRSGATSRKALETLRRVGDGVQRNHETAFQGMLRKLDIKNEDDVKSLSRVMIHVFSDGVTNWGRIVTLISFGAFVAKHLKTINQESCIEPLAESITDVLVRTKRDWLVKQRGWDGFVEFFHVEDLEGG
[1] abbreviates: Table 2, Ki bins given in nM, FITC-Bak or FITC-Bim peptide competition, Ki converted from IC50, read-out: Ki for Inhibition of Mcl-1.
Where [2] appears, read: Table 2, Ki bins given in μM, FITC-Bak or FITC-Bim peptide competition, Ki converted from IC50, read-out: Ki for Inhibition of Mcl-1.

Consider `Cc1cc(OCCCc2c3n(c4c(-c5c(C)nn(C)c5C)c(Cl)ccc24)CCCN(c2cc(C(=O)O)cc4c2ccn4Cc2cccnc2)C3=O)cc(C)c1Cl` [I-242, 4-(8-chloro-11-(3-(4-chloro-3,5-dimethylphenoxy)propyl)-1-oxo-7-(1,3,5-trimethyl-1H-pyrazol-4-yl)-4,5-dihydro-1H-[1,4]diazepino[1,2-a]indol-2(3H)-yl)-1-(pyridin-3-ylmethyl)-1H-indole-6-carboxylic acid], for which the Ki under setting [1] was less than 50 nM.
On the same count and under the same terms, in the case of `Cc1cc(OCCCc2c3n(c4c(-c5c(C)nn(C)c5C)c(Cl)ccc24)CCCN(c2cc(C(=O)O)c4ccn(CCN(C)C)c4c2)C3=O)cc(C)c1Cl` [I-243, 6-(8-chloro-11-(3-(4-chloro-3,5-dimethylphenoxy)propyl)-1-oxo-7-(1,3,5-trimethyl-1H-pyrazol-4-yl)-4,5-dihydro-1H-[1,4]diazepino[1,2-a]indol-2(3H)-yl)-1-(2-(dimethylamino)ethyl)-1H-indole-4-carboxylic acid] it was less than 50 nM.
Consider `Cc1cc(OCCCc2c3n(c4c(-c5c(C)nn(C)c5C)cc(Cl)cc24)CCCN(c2cc(C(=O)O)c4ccn(C)c4c2)C3=O)cc(C)c1Cl` [I-244, 6-(9-chloro-11-(3-(4-chloro-3,5-dimethylphenoxy)propyl)-1-oxo-7-(1,3,5-trimethyl-1H-pyrazol-4-yl)-4,5-dihydro-1H-[1,4]diazepino[1,2-a]indol-2(3H)-yl)-1-methyl-1H-indole-4-carboxylic acid], for which the Ki was 101 to 299 nM.
Same read-out and setting: in the case of `Cc1cc(OCCCc2c3n(c4c(-c5c(C)nn(C)c5C)cc(Cl)cc24)CCCN(c2cc(C(=O)O)cc4c2ccn4C)C3=O)cc(C)c1Cl` [I-245, 4-(9-chloro-11-(3-(4-chloro-3,5-dimethylphenoxy)propyl)-1-oxo-7-(1,3,5-trimethyl-1H-pyrazol-4-yl)-4,5-dihydro-1H-[1,4]diazepino[1,2-a]indol-2(3H)-yl)-1-methyl-1H-indole-6-carboxylic acid] it was 101 to 299 nM.
Consider `Cc1cc(OCCCc2c3n(c4c(-c5c(C)nn(C)c5C)cc(Cl)cc24)CCCN(c2cccc(C(=O)O)c2)C3=O)cc(C)c1Cl` [I-246, 3-(9-chloro-11-(3-(4-chloro-3,5-dimethylphenoxy)propyl)-1-oxo-7-(1,3,5-trimethyl-1H-pyrazol-4-yl)-4,5-dihydro-1H-[1,4]diazepino[1,2-a]indol-2(3H)-yl)benzoic acid], for which the Ki under setting [1] lay in the range of 101 to 299 nM.
Take `Cc1cc(OCCCc2c3n(c4c(-c5c(C)nn(C)c5C)c(Cl)ccc24)CCCN(c2cccc4c2ccn4C)C3=O)cc(C)c1Cl` [I-247, 8-chloro-1-(3-(4-chloro-3,5-dimethylphenoxy)propyl)-2-(1-methyl-1H-indol-4-yl)-7-(1,3,5-trimethyl-1H-pyrazol-4-yl)-2,3,4,5-tetrahydro-1H-[1,4]diazepino[1,2-a]indol-1-one]: under setting [1], the Ki is less than 50 nM.
Still for that read-out and setting: the value for `Cc1cc(OCCCc2c3n(c4c(-c5c(C)nn(C)c5C)c(Cl)ccc24)CCCN(c2ccc4ccn(C)c4c2)C3=O)cc(C)c1Cl` [I-248, 8-chloro-1-(3-(4-chloro-3,5-dimethylphenoxy)propyl)-2-(1-methyl-1H-indol-6-yl)-7-(1,3,5-trimethyl-1H-pyrazol-4-yl)-2,3,4,5-tetrahydro-1H-[1,4]diazepino[1,2-a]indol-1-one] was less than 50 nM; that for `CCn1ccc2c(N3CCCn4c(c(CCCOc5cc(C)c(Cl)c(C)c5)c5ccc(Cl)c(-c6c(C)nn(C)c6C)c54)C3=O)cc(C(=O)O)cc21` [I-249, 4-(8-chloro-11-(3-(4-chloro-3,5-dimethylphenoxy)propyl)-1-oxo-7-(1,3,5-trimethyl-1H-pyrazol-4-yl)-4,5-dihydro-1H-[1,4]diazepino[1,2-a]indol-2(3H)-yl)-1-ethyl-1H-indole-6-carboxylic acid] was less than 50 nM; that for `Cc1cc(OCCCc2c3n(c4c(-c5c(C)nn(C)c5C)c(Cl)ccc24)CCCN(c2cc(C(=O)O)c4c(ccn4C)c2)C3=O)cc(C)c1Cl` [I-250, 5-(8-chloro-11-(3-(4-chloro-3,5-dimethylphenoxy)propyl)-1-oxo-7-(1,3,5-trimethyl-1H-pyrazol-4-yl)-4,5-dihydro-1H-[1,4]diazepino[1,2-a]indol-2(3H)-yl)-1-methyl-1H-indole-7-carboxylic acid] was less than 50 nM.
The same measure, in the same setting: in the case of `Cc1cc(OCCCc2c3n(c4c(-c5c(C)nn(C)c5C)c(Cl)ccc24)CCCN(c2cc(C(=O)O)cc4[nH]ccc24)C3=O)cc(C)c1Cl` [I-252, 4-(8-chloro-11-(3-(4-chloro-3,5-dimethylphenoxy)propyl)-1-oxo-7-(1,3,5-trimethyl-1H-pyrazol-4-yl)-4,5-dihydro-1H-[1,4]diazepino[1,2-a]indol-2(3H)-yl)-1H-indole-6-carboxylic acid] it was less than 50 nM; in that of `Cc1cc(OCCCc2c3n(c4c(-c5c(C)nn(C)c5C)c(Cl)ccc24)CCCN(c2cc(C(=O)O)c4cc[nH]c4c2)C3=O)cc(C)c1Cl` [I-253, 6-(8-chloro-11-(3-(4-chloro-3,5-dimethylphenoxy)propyl)-1-oxo-7-(1,3,5-trimethyl-1H-pyrazol-4-yl)-4,5-dihydro-1H-[1,4]diazepino[1,2-a]indol-2(3H)-yl)-1H-indole-4-carboxylic acid], less than 50 nM; in that of `Cc1cc(OCCCc2c3n(c4c(-c5c(C)nn(C)c5C)c(Cl)ccc24)CCCN(c2cc(C(=O)O)cc4c2c(C=O)cn4C)C3=O)cc(C)c1Cl` [I-254, 4-(8-chloro-11-(3-(4-chloro-3,5-dimethylphenoxy)propyl)-1-oxo-7-(1,3,5-trimethyl-1H-pyrazol-4-yl)-4,5-dihydro-1H-[1,4]diazepino[1,2-a]indol-2(3H)-yl)-3-formyl-1-methyl-1H-indole-6-carboxylic acid], less than 50 nM.
Consider `Cc1cc(OCCCc2c3n(c4c(-c5c(C)nn(C)c5C)c(Cl)ccc24)CCCN(c2cc(C(=O)O)cc4c2c(Cl)cn4C)C3=O)cc(C)c1Cl` [I-255, 3-chloro-4-(8-chloro-11-(3-(4-chloro-3,5-dimethylphenoxy)propyl)-1-oxo-7-(1,3,5-trimethyl-1H-pyrazol-4-yl)-4,5-dihydro-1H-[1,4]diazepino[1,2-a]indol-2(3H)-yl)-1-methyl-1H-indole-6-carboxylic acid], for which the Ki under setting [1] is less than 50 nM.
Same read-out and setting: in the case of `Cc1cc(OCCCc2c3n(c4c(-c5c(C)nn(C)c5C)c(Cl)ccc24)CCCN(c2cc(C(=O)O)cc4c2c(Br)cn4C)C3=O)cc(C)c1Cl` [I-256, 3-bromo-4-(8-chloro-11-(3-(4-chloro-3,5-dimethylphenoxy)propyl)-1-oxo-7-(1,3,5-trimethyl-1H-pyrazol-4-yl)-4,5-dihydro-1H-[1,4]diazepino[1,2-a]indol-2(3H)-yl)-1-methyl-1H-indole-6-carboxylic acid] it was less than 50 nM.
Same read-out and setting: in the case of `Cc1cc(OCCCc2c3n(c4c(-c5c(C)nn(C)c5C)c(Cl)ccc24)CCCN(c2cc(C(=O)O)c4c(Cl)cn(C)c4c2)C3=O)cc(C)c1Cl` [I-257, 3-chloro-6-(8-chloro-11-(3-(4-chloro-3,5-dimethylphenoxy)propyl)-1-oxo-7-(1,3,5-trimethyl-1H-pyrazol-4-yl)-4,5-dihydro-1H-[1,4]diazepino[1,2-a]indol-2(3H)-yl)-1-methyl-1H-indole-4-carboxylic acid] it was less than 50 nM; in that of `Cc1cc(OCCCc2c3n(c4c(-c5c(C)nn(C)c5C)c(Cl)ccc24)CCCN(c2cc(C(=O)O)c4c(Br)cn(C)c4c2)C3=O)cc(C)c1Cl` [I-258, 3-bromo-6-(8-chloro-11-(3-(4-chloro-3,5-dimethylphenoxy)propyl)-1-oxo-7-(1,3,5-trimethyl-1H-pyrazol-4-yl)-4,5-dihydro-1H-[1,4]diazepino[1,2-a]indol-2(3H)-yl)-1-methyl-1H-indole-4-carboxylic acid], less than 50 nM.
Turning to `Cc1cc(OCCCc2c(C(=O)N3CCC(NC(=O)c4cccc(Oc5ccccc5)c4)CC3)[nH]c3ccccc23)cc(C)c1Cl` [I-259, N-(1-(3-(3-(4-chloro-3,5-dimethylphenoxy)propyl)-1H-indole-2-carbonyl)piperidin-4-yl)-3-phenoxybenzamide], the Ki under setting [2] lay within 1000 to 9990 nM.
Same read-out and setting: the value for `Cc1cc(OCCCc2c(C(=O)NCc3ccc(N4CCc5ccccc5C4)nc3)[nH]c3c(-c4c(C)nn(C)c4C)cccc23)cc(C)c1Cl` [I-261, 3-(3-(4-chloro-3,5-dimethylphenoxy)propyl)-N-((6-(3,4-dihydroisoquinolin-2 (1H)-yl)pyridin-3-yl)methyl)-7-(1,3,5-trimethyl-1H-pyrazol-4-yl)-1H-indole-2-carboxamide] was 1000 to 9990 nM.
Regarding `Cc1cc(OCCCc2c(C(=O)NCc3ccnc(N4CCc5ccccc5C4)c3)[nH]c3c(-c4c(C)nn(C)c4C)cccc23)cc(C)c1Cl` [I-263, 3-(3-(4-chloro-3,5-dimethylphenoxy)propyl)-N-((2-(3,4-dihydroisoquinolin-2(1H)-yl)pyridin-4-yl)methyl)-7-(1,3,5-trimethyl-1H-pyrazol-4-yl)-1H-indole-2-carboxamide], under setting [1], the Ki lay in the range of 301 to 500 nM.
As to `Cc1cc(OCCCc2c(C(=O)NCc3cccc(OC(F)(F)F)c3)[nH]c3c(-c4c(C)nn(C)c4C)cccc23)cc(C)c1Cl` [I-264, 3-(3-(4-chloro-3,5-dimethylphenoxy)propyl)-N-(3-(trifluoromethoxy)benzyl)-7-(1,3,5-trimethyl-1H-pyrazol-4-yl)-1H-indole-2-carboxamide], the Ki under setting [2] was 1000 to 9990 nM.
Still for that read-out and setting: in the case of `Cc1cc(CNC(=O)c2[nH]c3c(-c4c(C)nn(C)c4C)cccc3c2CCCOc2cc(C)c(Cl)c(C)c2)cc(OC(F)(F)F)c1` [I-265, 3-(3-(4-chloro-3,5-dimethylphenoxy)propyl)-N-(3-methyl-5-(trifluoromethoxy)benzyl)-7-(1,3,5-trimethyl-1H-pyrazol-4-yl)-1H-indole-2-carboxamide] it was 1000 to 9990 nM; in that of `CCOC(=O)c1ccc(CNC(=O)c2[nH]c3c(-c4c(C)nn(C)c4C)cccc3c2CCCOc2cc(C)c(Cl)c(C)c2)o1` [I-266, ethyl 5-((3-(3-(4-chloro-3,5-dimethylphenoxy)propyl)-7-(1,3,5-trimethyl-1H-pyrazol-4-yl)-1H-indole-2-carboxamido)methyl)furan-2-carboxylate], 10000 to 50000 nM.
